As a reminder, the Cmax is the highest concentration seen after dosing.

The record followed here is US20200113852A1, “METHODS OF PATIENT SELECTION AND TREATING TRXR- OR PRDX-OVEREXPRESSED CANCERS” (TRIACT THERAPEUTICS, INC., priority 2017, published 2020).

Series [1] deals with JNK, p38MAPK in MDA-MB-453 cells. As to the kind of experiment: Cell death signaling western blots (phospho-JNK, phospho-p38MAPK). To be noted: MDA-MB-453, 100 μM. In general terms: A western blot detects proteins with antibodies after separation by electrophoresis.
Method: (§1) Cells extracts were analyzed by SDS-PAGE either under reducing conditions or under non-reducing conditions in the case of Trx blot followed by blots anti-phospho-JNK, anti-phospho-p38MAPK, anti-cleaved-PARP and anti-Trx. Results are representative of three independent experiments.
(§2) After 2 h at 4° C., lysates were clarified by centrifugation and protein amounts were measured using the BCA assay (Pierce, Thermo scientific).
(§3) Equal amounts of proteins were resolved by SDS-PAGE under either non-reducing or reducing (5% 2-mercaptoethanol, 20 min at 60° C.) conditions, using 4-20% gels (Novex, Invitrogen), then subjected to semi-dry electrophoretic transfer onto nitrocellulose membranes.
A further series concerns the target T1, ΔSec human TrxR1 (Homo sapiens, UniProt Q16881).
T1 construct: purchased Abnova
As to the kind of experiment: Electron paramagnetic resonance, DEPMPO spin trapping. In kind it is biochemical. Particulars: ΔSec-TrxR1, absence of auranofin.

Series [2] is described as follows: Phase I clinical trial GBM, pharmacokinetics. In kind it is in vivo, human. Particulars: human, geometric mean±SD, plasma, read-out: Cmax. The text has this:
No cytochrome P450-inducing anticonvulsants. However, Gliadel was permitted.
Dosing is IV 2×/week continuous.

Series [3] has as its system Trx, JNK, p38MAPK, PARP in HCT116 cells. Put plainly: Cell death signaling western blots (Trx oxidation, phospho-JNK, phospho-p38MAPK, cleaved-PARP).
Method: as §1, §2, §3
The subject of series [4] is HCT116 cells. As to the kind of experiment: ROS production and video-microscopy (H2DCF). In kind it is cell-based, human. To be noted: HCT116 loaded with H2DCF, 100 μM. Here is the method: HCT116 cells pretreated or not for 20h with 1 mM BSO were loaded with 5 μM 2′,7′ dichloroflurescein diacetate (H2DCF). […] H2DCF fluorescence was excited with a LED light source (490 nm) and emitted light was collected at 520-550 nm. For video, H2DCF-loaded cells were washed with HBSS and kept for measurement in 2 μM H2DCF in HBSS.
For quantification the MetaMorph® software was used. ROIs were traced on representative cells and integrated fluorescence intensities were estimated. Values correspond to the average intensities of the ROIs and are expressed as the ratio F/FO, where F is the averaged intensity recorded at a given time and FO corresponds to an averaged intensity recorded on images captured before adding the compounds.

Series [5] has as its system HCT116 cells. Put plainly: Fluorescence microscopy, subcellular localization of Iniparib-biotin targets. To be noted: HCT116, 30 min after adding Iniparib-biotin. In kind it is cell-based, human. Here is the method: HCT116 cells were platted on polylysine D coated thin glass bottom microscope chambers (Ibidi). […] For subcellular localization experiments mitochondria were stained with 100 nM Mitotracker Red CMX (Molecular probes) added for 10 min. This stain was performed before fixation (Paraformaldehyde 3.7% in PBS pH 7.4). Biotin was developed, after Triton X100 (0.3% in PBS, 15 min) permeabilization and saturation (1% BSA+1% gelatin in PBS: saturation buffer), with Alexa-488 streptavidin (Molecular Probes) conjugate (1 μg/ml in saturation buffer). Nuclei were stained with Hoechst (Molecular Probes) and samples mounted in anti-fading solution (Ibidi).
Cells were imaged with a PLAN NeoFluar 40× (NA 1.3) or 100×, (NA 1.46) oil objectives on a LSM510 (Zeiss) confocal microscope. Laser lines, filters and dichroic mirrors were selected for maximal separation of the green (Ex./Em. 488/530 nm) and the red fluorescence (Ex./Em. 543/LP 585 nm). Nuclei were observed (Ex./Em. 405/460 nm). For co-localization stacks of images separated by 400 nm along z-axis were acquired. Post-capture processing was done using LSM510 software, and Photoshop (Adobe) was used to make linear adjustments to brightness and contrast.

A further series has as its target T2, TrxR1 (Homo sapiens, UniProt Q16881).
T2 sequence (Q16881 1-499 isoform Q16881-5): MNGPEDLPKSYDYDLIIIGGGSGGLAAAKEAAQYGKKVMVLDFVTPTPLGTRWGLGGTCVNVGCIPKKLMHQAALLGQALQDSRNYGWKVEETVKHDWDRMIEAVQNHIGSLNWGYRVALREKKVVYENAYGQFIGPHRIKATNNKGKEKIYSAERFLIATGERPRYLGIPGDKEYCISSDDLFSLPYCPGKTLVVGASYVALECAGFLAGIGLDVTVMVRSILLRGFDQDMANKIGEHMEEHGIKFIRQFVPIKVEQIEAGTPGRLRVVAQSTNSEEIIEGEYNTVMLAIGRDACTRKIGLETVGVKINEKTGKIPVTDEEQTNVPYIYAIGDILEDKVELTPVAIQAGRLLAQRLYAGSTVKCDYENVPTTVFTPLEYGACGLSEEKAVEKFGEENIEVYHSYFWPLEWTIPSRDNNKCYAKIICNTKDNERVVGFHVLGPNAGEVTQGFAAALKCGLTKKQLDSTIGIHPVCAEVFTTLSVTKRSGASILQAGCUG
Put plainly: In vitro Iniparib-biotin TrxR adduct formation on immunoprecipitated TrxR with or without NADPH. In kind it is binding.

Molecules are shown by their SMILES. Where two headings read alike, the source gives them in different places.

For the compound `NC(=O)c1ccc(I)c([N+](=O)[O-])c1` [Iniparib, 4-iodo-3-nitrobenzamide], the “JNK activation, time of peak” value in series [1] was 10 h. Besides, the “DEPMPO/HOO• adduct signal” value on ΔSec human TrxR1 is given as “increase”. Further, the “DEPMPO/HO• adduct signal” value on ΔSec human TrxR1 is on record as “modest increase”. Further, the Cmax in series [2] (5.1 mg/kg IV 2×/week) stood at 642 ± 315 ng/mL; in series [2] (6.1 mg/kg IV 2×/week), 928 ± 397 ng/mL; in series [2] (6.8 mg/kg IV 2×/week), 1020 ng/mL; in series [2] (8.0 mg/kg IV 2×/week), 3690 ng/mL; in series [2] (8.6 mg/kg IV 2×/week), 1520 ng/mL; in series [2] (9.5 mg/kg IV 2×/week) it was 2140 ng/mL. Further, in series [3] (GSH-depleted HCT116, 100 μM, persisted until 24 h), the “JNK activation, time of occurrence” value is 6 h. Besides, the “p38MAPK and JNK phosphorylation” value in series [3] (GSH-depleted HCT116, 7 h or 24 h) is “activation of both p38MAPK and JNK phosphorylation”. Besides, the Trx oxidation entry in series [3] (GSH-depleted HCT116, 7 h or 24 h, 100 μM Iniparib, 1 μM Auranofin, 100 nM Staurosporin) is on record as “oligomeric/oxidized form of Trx accumulated”. The ROS production entry with HCT116 cells [4] is given as “induced an increase in ROS production”.

In the case of `O=C(CCCC[C@@H]1SC[C@@H]2NC(=O)N[C@@H]21)NCCNC(=O)c1ccc(I)c([N+](=O)[O-])c1` [Iniparib-biotin, 4-iodo-3-nitro-N-(2-(5-((3 aS,4S,6aR)-2-oxohexahydro-1H-thieno[3,4-d]imidazol-4-yl)pentanamido)ethyl)benzamide], in the series with HCT116 cells [5], the “subcellular localization of labeled proteins” value was “cellular proteins were labeled in the cytosol as well as in the nucleus and cytoplasmic structures”. In addition, the “adduct formation with TrxR1” value on TrxR1 (NADPH provided) is reported as “able to form adducts with TrxR1 to a large extent”. The “covalent labeling of TrxR1” value on TrxR1 (absence of NADPH) is recorded as “almost no covalent labeling”.
